According to ChEMBL document CHEMBL1150867, “New sesquiterpene hydroquinones from a Taiwanese marine sponge, Hippospongia metachromia” (J Nat Prod, 2001):
In brackets after ≈: the same amount, converted by molar mass.

Assays:
COLO 205 = assay: Cytotoxicity against human COLO205 cells by methylene blue dye assay
[1] = Cytotoxicity against human KB16 cells by methylene blue dye assay

Compound	IC50 (COLO 205) [µg/mL]	IC50 [1] [µg/mL]
C=C1[C@H](C)CCC[C@]1(C)CC[C@@]1(C)C=Cc2c(OC(C)=O)c(OC(C)=O)cc(OC)c2O1 [HIPPOCHROMIN A DIACETATE]	0.22	3.06
C=C1[C@H](C)CCC[C@]1(C)CC[C@@]1(C)C=Cc2c(OC(C)=O)c(OC)cc(OC)c2O1 [METACHROMIN B MONO METHYLATE]	0.53 (≈ 1.28 µM)	1.32 (≈ 3.18 µM)
C=C1[C@H](C)CCC[C@]1(C)CC/C(C)=C/CC1=C(O)C(=O)C=C(OC)C1=O [METACHROMIN A]	0.1 (≈ 0.279 µM)	1.8 (≈ 5.02 µM)
C=C1[C@H](C)CCC[C@]1(C)CC[C@@]1(C)C=Cc2c(O)c(OC)cc(OC)c2O1 [METACHROMIN B]	0.26 (≈ 0.698 µM)	0.68 (≈ 1.83 µM)
C=C1[C@H](C)CCC[C@]1(C)CC[C@@]1(C)C=Cc2c(OC(C)=O)c(OC)cc(OC(C)=O)c2O1 [HIPPOCHROMIN B DIACETATE]	> 10	> 10
C=C1[C@H](C)CCC[C@]1(C)CC/C(C)=C/CC1=C(OC)C(=O)C=C(OC)C1=O [METACHROMIN A MONOMETHYLATE]	> 10	> 10
C=C1[C@H](C)CCC[C@]1(C)CC[C@@]1(C)C=CC2=C(O1)C(=O)C=C(OC)C2=O [METACHROMIN E]	> 10	> 10
